Results reported in a melting point compilation (Tetko et al.; mined from patent text by program, amines drawn as free bases though some values may be those of a salt).

Structure (SMILES) | melting point [°C]
CCCCc1nnc(-c2ccc(OC)cc2)n1-c1ccc(OC)cc1 | 94
Oc1cc(F)ccc1Oc1ccc(-c2ccco2)cc1O | 102 to 104
CN1CCN(c2cc(Sc3ccc(Cl)cc3)nc(-c3ccccc3)n2)CC1 | 152 to 154
O=C(Nc1ccncc1)OC1CN2CCC1CC2 (centres undefined) | 149 to 151
CCOC(=O)c1cn(-c2c(OCc3ccccc3)cccc2OCc2ccccc2)cn1 | 125 to 126
N#CC(C(=O)Nc1ccc(S(=O)C(F)(F)F)cc1)=C(O)C1CC1 (centres undefined) | 155 to 157
CC(C)(C)SC(=O)C=CC1C(C(=O)OC(C#N)c2ccc(F)c(Oc3ccccc3)c2)C1(C)C (centres undefined) | 96
COc1ccc(S(=O)(=O)Nc2ccccc2NC(=O)c2ccccc2[N+](=O)[O-])cc1 | 168 to 170
CCCSCc1cc2oc(S(N)(=O)=O)cc2cn1 | 171 to 172
COc1ccc(C(=O)Nc2ccc(F)c(F)c2)cc1NCc1cccs1 | 172 to 174
NC(=O)c1ccc(F)c2c1OCC(N(CCCc1c[nH]c3ccc(F)cc13)C1CCC1)C2 (centres undefined) | 132
CS(=O)(=O)NCCCCn1c(CCO)nc2c(N)nc3cccnc3c21 | 194 to 195
Cc1cccc(NC(=O)C(C)Oc2ccc(Oc3ccc(C#N)cc3)cc2)n1 (centres undefined) | 109 to 111
Clc1ncn(COc2ccc(Oc3ccccc3)cc2)c1Cl | 82 to 83
COc1ccc(/C=C/C(=O)Nc2ccc(Br)cc2C(=O)O)cc1OC | 210 to 213
COc1cc(N)c(Cl)cc1C(=O)NCC1CCN(CCCCCC(=O)c2ccc(C)c(C)c2)CC1 | 115 to 117
CCOC(=O)C1Cn2c(nc3c(cnn3C)c2=O)S1 (centres undefined) | 159
COc1ccc2c(C)c(F)ccc2c1C(F)(F)F | 97 to 99
COC(=O)N(C)N=C(c1ccc(Cl)cc1)C(C)(C)C | 58 to 60
CCCc1cccc(C(C)(C)C)c1O | 89 to 90

Structure (SMILES) | melting point [°C]
O=C(NC(=O)c1ccccn1)NC1CN2CCC1CC2 (centres undefined) | 202 to 203
COc1cc(C(O)c2ccc(C)cc2)cc(C2OCCCO2)c1OC (centres undefined) | 83 to 84
COC(=O)C#CC(=O)c1ccc(C)cc1 | 44 to 47
CC1(C)C(c2ccc(S(C)(=O)=O)cc2)=C(c2ccccc2)C1F (centres undefined) | 79 to 81.5
CCCCCCCCC(=O)Nc1cc([N+](=O)[O-])cc([N+](=O)[O-])c1 | 72.5 to 73
CC(=O)NCc1ccc(CC[N+]2([O-])CCC(C3CCc4ccccc43)CC2)cc1 (centres undefined) | 130 to 131
Cc1cc(NC(=O)OC(C)(C)C)c(C)c(C)c1O | 158 to 161
COc1cc(C(=O)OCc2ccccc2)ccc1S(=O)(=O)Cl | 72
NN(Cc1nccs1)C1CCCN(C(=O)c2ccc(Nc3nccc(Nc4ccc(F)cc4)n3)cc2)C1 (centres undefined) | 160 to 165
CCCCN(c1nc(NCC(=O)OCC)nc(N(CCCC)C2CC(C)(C)NC(C)(C)C2)n1)C1CC(C)(C)NC(C)(C)C1 | 40
CNc1nc(NC)nc(-c2ccc(-c3ccccc3)cc2)n1 | 198 to 200
N=C(Nc1ccc(Cl)cc1)Nc1ncccc1OCc1cccc(Cl)c1F | 204 to 207
COc1ccccc1CCNC(=O)c1ccc2c(c1)C=CC(C)(C)O2 | 125 to 130
COc1ccc2cccnc2c1N | 114 to 115
CC(=O)SCC(Cc1ccccc1)C(=O)Nc1cc(C(=O)O)ccc1N1CCCC1 (centres undefined) | 217 to 222
CN1C(=O)CCC2(C)C1=CCc1cc(F)ccc12 (centres undefined) | 110 to 111
OCCCCCCCCCCCN1CCCCC1 | 62 to 65
O=C(O)CCCCc1cc(O)c(O)c([N+](=O)[O-])c1 | 135 to 138
CN(Cc1ccccc1)c1ccc(C(=O)c2ccccc2)cc1N | 93 to 94
Cc1c(F)cc(C(=O)O)cc1F | 153

Structure (SMILES) | melting point [°C]
O=C(O)C(=O)CC(=O)c1cccn1Cc1ccc2ccccc2c1 | 160 to 162
C[C@H](NC(=O)c1nc(CCCc2ccccc2)c[nH]1)C(=O)NC(C=O)CC(=O)O (some centres undefined) | 94 to 96
CC(=O)c1cnc(Br)c(C)c1 | 114 to 115
C=C1C(O)C(CO)OC1n1cc(CC)c(N)nc1=O (centres undefined) | 194 to 196
COc1cc2c(cc1O)CCN(Cc1cccc(OC)c1OC)C2 | 101 to 102
O=C(O)CCCCCC1=CCCC1=O | 70 to 72
CCN(c1cccc(C(=O)Nc2cc(NC(=O)c3cccc(N4CCOCC4)c3)ccc2C)c1)S(C)(=O)=O | 192 to 193
COc1ccc2c(c1)c(Br)cn2C(=O)OC(C)(C)C | 111 to 112
COc1ccc(NN=C(Sc2ccc(OC)c(OC)c2)C(C)=O)cc1 | 138 to 141
CN1CCN(Cc2ccc3n2Cc2ccccc2SC3c2ccccc2)CC1 (centres undefined) | 161 to 162
COCOc1ccc(CCCOc2nn(Cc3ccccc3)cc2CC(=O)O)c(Oc2ncc(C(F)(F)F)cc2Cl)c1 | 108 to 109
CC(C)(C)Sc1c(CC(C)(C)C(=O)O)n(Cc2ccc(Cl)cc2)c2ccc(OCc3cnc4ccccc4n3)cc12 | 216 to 219
NCCC(=O)Nc1ccc(Nc2ccccc2)cc1 | 108 to 110
c1ccc2c(c1)ccc1cnsc12 | 52
O=C1SC(Cc2ccc(OCCn3ccc4cccnc43)cc2)C(=O)N1C(c1ccccc1)(c1ccccc1)c1ccccc1 (centres undefined) | 168 to 169
CC(C)=CCOc1ccc(C(=O)C=Cc2ccco2)c(O)c1 | 75 to 77
N#CCCOC(=O)C=C1C=C(c2ccccc2)S(=O)(=O)C(c2ccccc2)=C1 | 156 to 157
O=C(CCl)Nc1ccc2c(c1NC(=O)c1cccs1)C(=O)c1ccccc1C2=O | 190 to 191

Second part, the compound after the results:

melting point [°C] | Structure (SMILES)
209 to 210 | O=c1c2cc(F)c(Cl)nc2n(Cc2ccccc2)c(=O)n1OCc1ccccc1
155 to 158 | Cc1ccccc1NC(=O)Nc1ccc(C(=O)N2Cc3cccn3Cc3ccccc32)cc1
163 to 164 | C=CCN(CC=C)c1nc(NC(=O)c2ccc(Cl)cc2Cl)n2oc(=O)nc2n1
146 to 147 | CC(C)CCS(=O)(=O)c1cccc(-c2nc(=O)c3ccccc3s2)n1
194 to 196 | Clc1ccc(-c2cccc3[nH]c4c(c23)CCN(Cc2ccccc2)CC4)c(Cl)c1
165 to 168 | CCCCn1c(=O)[nH]c2ccc(OC)c(OC)c2c1=N
> 300 | N#Cc1cc2[nH]c(=O)c3n[nH]c(=O)n3c2cc1-n1ccnc1
118 to 124 | COc1ccccc1C(C)C(Sc1ccc(C(=O)O)cc1)n1ccnc1 (centres undefined)
219 | CCCCc1[nH]c(Cc2ccccc2)nc(=O)c1Cc1ccc(-c2ccccc2C(=O)O)cc1
277 to 278 | O=C(O)c1cn(C2CC2)c2cc(Cl)c(F)c(Cl)c2c1=O
171 | O=[N+]([O-])c1cc(Cn2ccnc2)ccc1NCc1cccnc1
> 300 | Cc1cc(=O)[nH]nc1-c1ccc2c(c1)C(C)CC(=O)N2 (centres undefined)
218 to 220 | O=C(O)C(Cc1n[nH]c2ccccc12)NC(=O)C(CS)C(F)(F)F (centres undefined)
69 to 72.5 | C#Cc1cc(F)c(-n2c(=O)cc(C(F)(F)F)n(C)c2=O)c2c1OC(C)C2 (centres undefined)
103 to 105 | CC(C)(C)C(=O)C(Oc1cccc(Cl)n1)n1cncn1 (centres undefined)
160 to 162 | CCSc1ccc(C(=O)NCc2ccc3c(c2)C(=O)N(C2(C)CCC(=O)NC2=O)C3=O)nn1 (centres undefined)
141 to 143 | CC1CCCN(c2nc(-n3cncn3)nc(Cl)c2-c2c(F)cc(F)cc2F)O1 (centres undefined)
82 to 85 | CC(C)(C)OC(=O)COc1cc(NC(=O)OC(C)(C)C)c(NC(=O)CC(=O)c2cccc(-n3ccnc3)c2)cc1-c1ccc(F)cc1
108 to 110 | N#Cc1ccc2c(c1)Sc1ccccc1C=C2
174 to 175 | O=C(CN1CSCC1=O)N1CCC(c2c[nH]c3ccccc23)CC1
245 to 247 | O=C1CCC(N2C(=O)c3cccc(OCc4ccc(Cl)c(Cl)c4)c3C2=O)C(=O)N1 (centres undefined)

melting point [°C] | Structure (SMILES)
127 to 128 | Nc1nn(-c2ccccc2)cc1CO
> 250 | Cc1ccc2c(c1)C1c3cc4c(cc3OCC1NC2=O)OCO4 (centres undefined)
211 to 214 | C(=C\c1cc(/C=C/c2ccc3cc[nH]c3c2)n[nH]1)/c1ccc(OCc2ccccn2)cc1
161 to 164 | Cn1cc(-c2ccccc2)c(=O)c(-c2cccc(S(C)=O)c2)c1 (centres undefined)
192 to 193 | C[C@@H](N(CC(=O)O)C(=O)c1ccc(OCC(F)(F)C(F)F)cc1)[C@](O)(Cn1cncn1)c1ccc(Cl)cc1Cl (relative stereo)
> 300 | O=C(NCC1CCN(c2cc3nc(C(=O)O)c(=O)[nH]c3cc2[N+](=O)[O-])C1)Nc1ccccc1 (centres undefined)
129 to 130 | COc1cc2c(cc1OCc1ccccc1)CCC(=O)N2Cc1cc(OC)c(OC)c(OC)c1
200 to 202 | Cn1cc(C(=O)NCc2ccc(Cl)cc2)c(=O)c2cc(CN3CCOCC3)cc(C#Cc3ccncc3)c21
159 to 162 | CC(=O)N1C2=NC(C)(C)N(C)C(=O)N2c2ccccc21
267 to 270 | CCCOc1ncc(NS(=O)(=O)CC(=O)O)cc1-c1nc2c(CCC)nn(C)c2c(=O)[nH]1
215 to 218 | CC(C)CC(=O)c1cc2ccncc2[nH]1
172 | Cn1ccnc1Sc1cccc(-c2nc(=O)c3ccccc3s2)n1
263 | CS(=O)C1(c2ccncc2)CNN=C1c1ccc(F)cc1 (centres undefined)
60 to 61 | O=C1Cc2cc(Cl)ccc2Oc2ccccc21
125 | Clc1ccc2c(c1)CN1C(=Nc3cccnc3)SC[C@@H]1C2
109 to 111 | CC(=O)CCCn1c(=O)c2c(ncn2C)n(C)c1=O
149 to 151 | O=[N+]([O-])c1ccc2oc(-c3ccc(CN4CCOCC4)s3)nc2c1
191 to 193 | CCOC(=O)N1CCc2nc(-c3ccncc3)cc(=O)n2CC1
211 to 212 | COCCOC1=CC(=O)C(Nc2ncnc3cc(OCCOC)c(OC)cc23)=CC1=O
274 to 275 | S=C1Nc2ccc(Cl)cc2Nc2ccccc21
